For one data set, the system named is C57BI/6 mice. Nature of the data set: Acute in vivo food intake test in mice. The settings on record: 24 h food intake, C57BI/6 mice on high caloric diet, 100 mg/kg/day by oral gavage in two half doses. The procedure: 2. Acute in vivo Food Intake Test in Mice
The studies were carried out in male or female C57BI/6 mice (n=8-12 per group). The mice were kept on an inverted 12/12 h light/dark cycle (lights on 22:00). They were allowed food (high caloric diet) and water ad libitum. Food intake and water consumption was measured daily. The test compound of general Formula I was suspended in 1% methylcellulose in water and 2% (v/v) of Poloxamer 188 (Lutrol F68®) and administered by oral gavage at a dose of 100 mg/kg/day. One half of the dose was administered at 7.00-9.00 h; the remaining half of the dose was administered between 15.00-15.30 h.
In the test model described above, the test substances caused a decrease of the animals' 24 h food intake to the percentages of food intake when compared to control as given in the following Table 2.

Data set [1] concerns the target T1, human carbonic anhydrase isoenzyme II (hCA II) (Homo sapiens, UniProt P00918).
T1 construct: human carbonic anhydrase isoenzyme II from erythrocytes (Sigma-Aldrich); purchased Sigma-Aldrich; host or cells: human erythrocytes (natural source)
Nature of the data set: In vitro inhibition of human carbonic anhydrase isoenzyme II (dansylamide fluorescence). It counts as binding. The conditions noted are these: hCA II from erythrocytes 10^-7 M, dansylamide 2.25x10^-6, 60 min at 37° C., single measurements; read-out: hCA II inhibiting effect in vitro, IC50. The procedure:
1. In vitro Inhibition of Human Carbonic Anhydrase Isoenzyme II (hCA II)
The test compounds of general Formula I in 96 well microplates were diluted with aqua bidest by using an automatic pipettor (CyBiWell®). From the different dilution plates, aliquots of 20 μl were transferred to the 96 well black assay plates with a pipetting station (Tecan Genesis®). In a second step, 148 μl of potassium phosphate buffer (20 mM, pH 7.4) was added, and as a third step, 20 μl of enzyme solution (1 μM human carbonic anhydrase isoenzyme II from erythrocytes (Sigma-Aldrich), dissolved in potassium phosphate buffer) incubated for 60 min at room temperature and the fluorescence signal (Tecan Ultra® fluorescence reader; excitation wavelength: 280 nm; emission wavelength: 465 nm) read at the end of the preincubation period (FLU-1). After the preincubation time, 20 μl of aqueous dansylamide solution (1 mM dansylamide (Sigma-Aldrich), dissolved in hydrochloric acid) were added and the fluorescence signal read every 10 min for a period of 60 min at 37° C. For calculation, the fluorescence data of the time point 60 min (FLU-2) were used. The total volume of assay mixture amounted to 208 μl. The final concentration of carbonic anhydrase II was 10^−7 M/L, of dansylamide 2.25×10^−6 and of compounds from 10^−8 M/L up to 10^−5 M/L. Final concentration of DMSO as compound solvent was 0.1 mM. Each microplate also contained blanks without compound and enzyme, controls without compound and ethoxzolamide (final concentration 5×10^−8 M/L). All data reflect single measurements. Data were expressed as % inhibition after calculation by the formula: % inhibition=100((1−(FLU-2cpd−FLU-2blank−FLU-1cpd+FLU-1blank)/(FLU-2control−FLU-2blank−FLU-1control−FLU-1blank))
The % inhibition data for each compound and the respective final concentrations were used for IC50 calculations by using the Prism 4 software. Concentration action figures were calculated by applying the Prism algorithm for nonlinear regression (curve-fit): sigmoidal dose response with variable slope and the constraints: top: 100 and bottom 0.

The values below come from patent US7547708B2, “N-sulfamoyl-N′-benzopyranpiperidine compounds and uses thereof” (Solvay Pharmaceuticals, Inc., priority 2005, dated 2009).

A word on the melting point: it is the temperature, or range, at which the solid turns liquid. One may read the IC50 as the concentration at which inhibition is half-maximal. In turn, `NS(=O)(=O)N1CCC2(CC1)CC(=O)c1ccccc1O2` [Example 1] had a melting point of 172 to 174 °C. In addition, the “food intake [% of control]” value in the data set on C57BI/6 mice is given as 83 % of control. Further, the half-inhibitory concentration (IC50) in data set [1] was determined as 6.6 µM.

Molecule `COc1ccc2c(c1)C(=O)CC1(CCN(S(N)(=O)=O)CC1)O2` [Example 3] showed a melting point of 172 to 177 °C. In data set [1], the IC50 stood at 7.7 µM.

In the case of `NS(=O)(=O)N1CCC2(CC1)CC(=O)c1cc(Cl)ccc1O2` [Example 4], in data set [1], the IC50 is 6.4 µM.
